Data as given in US20180318241A1, “TREATMENT OF NERVOUS SYSTEM DISORDERS USING THYROID HORMONE NEUTRAL DOSES OF RXR AGONISTS” (Io Therapeutics, Inc., priority 2015, published 2018).
“Also recorded” adds a separate entry of the source.

Assays:
[1] = tested on: ethidium bromide induced demyelination of caudal cerebellar peduncles in rats; assay: Focal ethidium bromide induced demyelination, remyelination analysis; assay type: in vivo, rat
Protocol: The experiment uses rats of relatively advanced age (1 year) since such rats undergo remyelination in a less efficient manner, thereby providing data that are more relevant to the clinical treatment of human patients with multiple sclerosis or other demyelination disorders.
Focal demyelination is induced in one year old rats (approximately 300 g in weight) by injecting stereotactically 5 μl of ethidium bromide solution (0.01% vol/vol in saline) in a bilateral manner into the caudal cerebellar peduncles (CCP). […] The rats are killed on day 24 post-ethidium bromide treatment for analysis of remyelination by quantitative polymerase chain reaction (qPCR) and microscopy. Serum T4 levels are determined before initiation of treatment and weekly thereafter and at study termination.

EAE in SJL mice = assay: EAE in SJL mice; assay type: in vivo; conditions: 50 μg i.p. every other day, day 8 to day 14
Protocol: To determine whether a RXR agonist can attenuate multiple sclerosis, SJL mice were immunized to induce EAE by s.c. injection at the base of their spine with 200 μL of adjuvant containing 200 μg proteolipid proteins (139-151) (PLP peptide; Peptides International, Louisville, Ky.) and 400 μg of non-viable M. tuberculosis H37 desiccate emulsified in a mixture of incomplete Freund's adjuvant and PBS. Mice were also given 150 ng of pertussis toxin in PBS i.p. on the same day as PLP emulsion injection and 2 days later. […] Mice were scored using the scale described in Example 3.

Nurr1/RXR = Nurr1/RXR (Homo sapiens, UniProt P19793); assay: Permissive heterodimer transactivation assay in COS7 cells; assay type: cell-based
Nurr1/RXR, sequence (P43354 whole entry partner, one chain of several): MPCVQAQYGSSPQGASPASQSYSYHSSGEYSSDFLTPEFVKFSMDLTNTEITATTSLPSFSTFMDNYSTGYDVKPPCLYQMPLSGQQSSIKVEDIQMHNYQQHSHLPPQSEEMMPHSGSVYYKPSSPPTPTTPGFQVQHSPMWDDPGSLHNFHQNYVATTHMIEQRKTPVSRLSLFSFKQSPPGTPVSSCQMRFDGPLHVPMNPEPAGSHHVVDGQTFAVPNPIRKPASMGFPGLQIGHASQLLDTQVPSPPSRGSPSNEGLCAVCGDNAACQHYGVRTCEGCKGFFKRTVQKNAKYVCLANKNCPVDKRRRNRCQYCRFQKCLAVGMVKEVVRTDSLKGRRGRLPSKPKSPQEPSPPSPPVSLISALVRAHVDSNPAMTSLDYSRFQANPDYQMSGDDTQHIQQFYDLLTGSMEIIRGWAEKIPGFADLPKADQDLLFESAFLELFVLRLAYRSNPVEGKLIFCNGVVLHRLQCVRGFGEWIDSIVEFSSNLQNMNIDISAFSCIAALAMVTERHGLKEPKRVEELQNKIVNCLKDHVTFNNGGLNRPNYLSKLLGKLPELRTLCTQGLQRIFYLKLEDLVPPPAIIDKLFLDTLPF
Description: (§1) For PPARγ: CV-1 cells were transfected with 3×(rAOX/DR1)-tk-Luc reporter gene and an expression vector for PPARγ. For FXR:CV-1 cells were transfected with 3×(IBABP/IRI)-tk-Luc reporter gene and vectors for FXR and RXRα. For LXR:CV-1 cells were transfected with 3×(PLTP/LXRE)-tk-Luc reporter gene with vectors for LXRα or LXRβ. For Nurr1: COS7 cells were transfected with 3×NBRE-tk-luc reporter gene and full length Nurr-1 with or without full-length RXRα plasmid. […] Luciferase data were normalized to co-transfected β-gal activity. Luciferase activity was expressed as percent of maximal activity obtained using specific agonists. Rosiglitazone (PPARγ), GW4064 (FXR), T0901317 (LXR).

[2] = tested on: cuprizone+rapamycin demyelination in C57BL/6J mice; assay type: in vivo; conditions: 6 weeks concurrent with CR
Description: Animals (8 week-old male C57BL/6J mice) were subjected to cuprizone diet plus rapamycin injections (CR) for 6 weeks to induce demyelination. […] All animals were sacrificed after 6 weeks of CR to evaluate axonal integrity and microglial/macrophage activity in the white matter (corpus callosum, CC).
A total of 50 animals were included in the study, where 43 animals received CR demyelination for 6 weeks. During demyelination, a subset (n=7) of animals were kept on normal diet to serve as naïve age-matched controls.

[3] = tested on: cuprizone+rapamycin demyelination in C57BL/6J mice; assay: Cuprizone/rapamycin 12-week demyelination model, remyelination; assay type: in vivo, mouse; conditions: 10 mg/kg PO daily for 6 weeks after 12 weeks CR
Description: All animals were sacrificed after 12 weeks of CR or after further 6 weeks of treatment to evaluate myelin in white matter (corpus callosum) and gray matter (hippocampus and cortex). In addition, the size of myelinated axons was quantified and the large myelinated axons were further assessed by 3D-electron microscopy (3D-EM). A total of 40 animals were included in the study, where all 40 animals received CR demyelination for 12 weeks. After demyelination, a subset (n=10) of animals are sacrificed to serve as controls to assess baseline demyelination. […] Floating brain sections are immunostained with myelin prolipid protein (PLP) to visualize and quantify myelin in gray matter, hippocampus (FIG. 16A) and cortex (FIG. 16B).

LXRβ/RXR = assay: Permissive heterodimer transactivation assay in CV-1 cells; assay type: cell-based; conditions: 20 hr, relative to T0901317
Description: as §1

LXRα/RXR = assay: as above; assay type: cell-based; conditions: 20 hr, relative to T0901317
Description: as §1

FXR/RXR = biological target: T1, FXR/RXR (Homo sapiens, UniProt P19793); assay: as above; assay type: cell-based; conditions: 20 hr, relative to GW4064
T1 construct: expressed in transfected cells; host or cells: CV-1
T1 sequence (P19793 1-462): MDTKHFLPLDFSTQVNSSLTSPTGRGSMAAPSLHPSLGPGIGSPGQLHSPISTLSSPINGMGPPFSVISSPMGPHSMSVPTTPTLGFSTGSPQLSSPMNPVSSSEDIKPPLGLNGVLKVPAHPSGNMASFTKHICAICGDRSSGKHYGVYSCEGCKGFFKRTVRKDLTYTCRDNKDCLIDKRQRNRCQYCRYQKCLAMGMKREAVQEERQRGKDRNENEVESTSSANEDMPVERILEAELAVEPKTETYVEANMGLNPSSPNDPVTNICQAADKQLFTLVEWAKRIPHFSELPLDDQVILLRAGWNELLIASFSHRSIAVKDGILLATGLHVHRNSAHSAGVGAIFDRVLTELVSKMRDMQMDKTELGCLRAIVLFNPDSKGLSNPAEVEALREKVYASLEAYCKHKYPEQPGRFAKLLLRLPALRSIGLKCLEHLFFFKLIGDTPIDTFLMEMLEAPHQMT
T1 sequence (Q96RI1 1-486 partner): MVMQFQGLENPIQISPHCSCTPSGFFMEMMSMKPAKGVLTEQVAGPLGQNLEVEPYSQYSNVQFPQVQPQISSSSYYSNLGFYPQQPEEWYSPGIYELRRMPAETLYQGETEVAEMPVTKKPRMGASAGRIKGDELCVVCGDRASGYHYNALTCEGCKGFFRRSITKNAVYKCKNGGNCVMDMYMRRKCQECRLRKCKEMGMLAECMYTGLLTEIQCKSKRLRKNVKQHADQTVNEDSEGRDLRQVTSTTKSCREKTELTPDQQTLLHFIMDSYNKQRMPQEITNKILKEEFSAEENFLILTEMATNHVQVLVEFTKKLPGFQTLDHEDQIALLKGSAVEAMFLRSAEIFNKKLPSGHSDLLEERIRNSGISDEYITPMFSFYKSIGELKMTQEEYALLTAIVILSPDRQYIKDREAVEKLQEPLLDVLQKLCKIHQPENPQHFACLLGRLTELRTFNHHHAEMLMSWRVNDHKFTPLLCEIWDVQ
Description: as §1

[4] = tested on: oligodendrocyte precursor cells (OPCs); assay: OPC differentiation into oligodendrocytes (PLP-EGFP); assay type: cell-based, mouse
Description: OPCs were generated from a neurosphere culture of E14.5 PLP-EGFP (on C57BL/6J background) mouse brains. […] The EGFP expressing cells were quantified with Cellomics Neuronal Profiling Algorithm.
The EGFP expressing cells in controls and all compounds were quantified with Cellomics Neuronal Profiling Algorithm.

RARα = RARα (Homo sapiens, UniProt P10276); conditions: RARs (α, β, γ), at ≥1 μM
RARα, sequence (P10276 183-417 limits assumed, species assumed): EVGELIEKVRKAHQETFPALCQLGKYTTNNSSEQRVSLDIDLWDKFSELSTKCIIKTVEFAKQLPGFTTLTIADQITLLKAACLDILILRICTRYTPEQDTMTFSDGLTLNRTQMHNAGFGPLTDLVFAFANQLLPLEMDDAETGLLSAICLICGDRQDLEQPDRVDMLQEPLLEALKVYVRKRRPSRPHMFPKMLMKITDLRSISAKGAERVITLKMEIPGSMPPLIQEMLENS
Protocol: To determine whether a RXR agonist can mediate its effects via RXRα receptor homodimers, RXRβ receptor homodimers, RXRγ receptor homodimers, or any combination thereof, or the corresponding RAR/RXR heterodimers, receptor-mediated transactivation assays were performed. For transactivation assays assessing RXR homodimer signaling, CV-1 cells were transfected with 1) an expression construct including a full length RXRα, RXRβ, or RXRγ; and 2) a rCRBPII/RXRE-tk-Luc reporter construct that included RXR homodimer-specific RXRE/DR1 responsive element linked to a luciferase gene. For transactivation assays assessing RAR/RXR heterodimer signaling, CV-1 cells were transfected with 1) an expression construct comprising a fusion protein including an estrogen receptor (ER) DNA binding domain linked to the ligand binding domain of RARα, RARβ, or RARγ and 2) a ERE-tk-Luc reporter construct that included an estrogen receptor responsive element linked to a luciferase gene. […] Data are mean values±SE from five independent experiments.

[5] = tested on: multiple sclerosis (MS) patients; assay: Placebo-controlled clinical trial of thyroid hormone neutral doses in relapsing-remitting MS; assay type: in vivo, human; conditions: 30 to 180 days
Protocol: Patients with relapsing-remitting MS are recruited to participate in the clinical trial and are provided informed consent describing risks and potential benefits of participation. […] Patients are dosed for a minimum of 30 days, and as long as 180 days. […] Serum T4 levels will continue to be determined on a weekly basis.
Patients are assessed for the status of myelin damage and speed of repair of demyelination in MS lesions that occur over this period of time in their brains, spinal cords, and/or optic nerves. Quantitation of myelin damage and repair is performed at baseline and periodically through the dosing, using specialized imaging methods, which specifically examine and quantitate myelin damage and repair in these parts of the nervous system. […] This compound is useful for useful for quantitating myelin repair. […] In addition to the quantitation of myelin damage and repair by imaging methods, the clinical status of the MS patients' disease progression is preliminarily evaluated using standard clinical endpoints for MS clinical trials, such as the Expanded Disability Status Scale (EDSS). The EDSS is a 10 point scale which quantitates the MS patients' levels of disability by evaluating physical activities of daily life, such as walking, swallowing, bowel and bladder function, etc.

EAE in B6 mice = assay: EAE dose titration in B6 mice with spleen and CNS analysis; assay type: in vivo; conditions: 200 μg/day vs vehicle
Protocol: A dose titration experiment was also conducted in EAE mice. EAE was induced in 28 B6 mice with MOG/CFA and PT as above. Mice were scored on day 7 as indicated above and divided into groups by score so means are as equal as possible.
At the completion of the experiment, the vehicle control and 200 μg/day groups were euthanized and spleen and CNS samples obtained.

RXRγ = biological target: T2, RXRγ (Homo sapiens, UniProt P48443); assay: RXR homodimer transactivation assay (rCRBPII/RXRE-tk-Luc) in CV-1 cells; assay type: cell-based
T2 construct: an expression construct including a full length RXRα, RXRβ, or RXRγ; expressed in transfected cells; host or cells: CV-1
T2 sequence (P48443 1-463): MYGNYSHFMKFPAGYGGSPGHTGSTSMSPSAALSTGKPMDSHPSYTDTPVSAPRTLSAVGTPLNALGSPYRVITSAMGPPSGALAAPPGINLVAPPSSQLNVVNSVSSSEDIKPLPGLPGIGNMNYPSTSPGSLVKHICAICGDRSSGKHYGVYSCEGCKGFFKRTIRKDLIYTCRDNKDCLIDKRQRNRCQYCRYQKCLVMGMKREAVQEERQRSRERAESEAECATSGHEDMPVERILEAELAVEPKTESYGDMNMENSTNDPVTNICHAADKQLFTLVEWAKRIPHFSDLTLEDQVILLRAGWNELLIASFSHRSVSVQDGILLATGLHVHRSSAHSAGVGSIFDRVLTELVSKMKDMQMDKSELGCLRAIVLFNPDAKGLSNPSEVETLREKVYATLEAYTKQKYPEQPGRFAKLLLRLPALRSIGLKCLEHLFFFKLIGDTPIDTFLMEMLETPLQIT
Protocol: To determine whether a RXR agonist can mediate its effects via RXRα receptor homodimers, RXRβ receptor homodimers, RXRγ receptor homodimers, or any combination thereof, or the corresponding RAR/RXR heterodimers, receptor-mediated transactivation assays were performed. For transactivation assays assessing RXR homodimer signaling, CV-1 cells were transfected with 1) an expression construct including a full length RXRα, RXRβ, or RXRγ; and 2) a rCRBPII/RXRE-tk-Luc reporter construct that included RXR homodimer-specific RXRE/DR1 responsive element linked to a luciferase gene. For transactivation assays assessing RAR/RXR heterodimer signaling, CV-1 cells were transfected with 1) an expression construct comprising a fusion protein including an estrogen receptor (ER) DNA binding domain linked to the ligand binding domain of RARα, RARβ, or RARγ and 2) a ERE-tk-Luc reporter construct that included an estrogen receptor responsive element linked to a luciferase gene. The ER-RAR fusion proteins provided an accurate readout of only the transfected ER-RAR. […] Data are mean values±SE from five independent experiments.

`CC(/C=C/[C@@H]1C[C@]1(C)c1ccc2c(c1)C(C)(C)CCC2(C)C)=C\C(=O)O` [IRX4204, 3,7-dimethyl-6(S),7(S)-methano,7-[1,1,4,4-tetramethyl-1,2,3,4-tetrahydronaphth-7-yl]2(E),4(E) heptadienoic acid] was tested. Which “Mbp and Pdgfra expression (real-time qPCR of lesion samples)” value [1] did it give?
The value was “increase in Mbp expression and an increase in Pdgfra expression”.

What about the “densities of Olig2+ oligodendrocyte lineage cells and CC1+ differentiated oligodendrocytes in lesions” value ([1]; oral 1-10 mg/kg/day for fourteen days, relative to vehicle) of the same molecule?
Its value is “increased”.

And the “symptoms of EAE” value (EAE in SJL mice)?
The value was “significantly reduces the symptoms of EAE”.

What about the “activation of the Nurr1/RXR permissive heterodimer” value (Nurr1/RXR) of the same molecule?
The value was “selectively activates”.

And the “levels of Iba1 staining (microglia/macrophages) in CC compared to vehicle” value [2]?
Its value is “no difference”.

And the “number of SMI32 stained axonal ovoids in CC compared to Vehicle” value [2]?
The value was “trend towards decreased number of axonal ovoids”.

What about the “size of myelinated axons in the corpus callosum” value [3] of the same molecule?
The value was “significant increase”.

What about the “activation of LXRβ/RXR heterodimer” value (LXRβ/RXR) of the same molecule?
Its value is “not to transactivate; also recorded: does not activate”.

What about the “activation of LXRα/RXR heterodimer” value (LXRα/RXR) of the same molecule?
Its value is “not to transactivate; also recorded: does not activate”.

What about the “activation of FXR/RXR heterodimer” value (FXR/RXR) of the same molecule?
Its value is “not to transactivate; also recorded: does not activate”.

What about the “total cell number and pyknotic cells compared to controls” value [4] of the same molecule?
The value was “did not show any differences”.

And the “OPC differentiation into oligodendrocytes (EGFP positive cells) compared to negative control (DMSO)” value ([4]; all tested concentrations except the lowest concentration (1^−6 μM))?
Its value is “significant increase in OPC differentiation into oligodendrocytes; also recorded: dose dependent increase”.

And the “activity detected at RARs” value (RARα)?
The value was “minimal activity”.

And the “clinical benefit (myelin imaging, EDSS, visual acuity) compared to placebo controls” value [5]?
Its value is “Substantial clinical benefit”.

What about the “co-expression of IFNγ and IL-17A by CD4 T cells in CNS” value (EAE in B6 mice) of the same molecule?
Its value is “not significantly different”.

And the “CCR6 expression on CD4 T cells” value (EAE in B6 mice; spleen)?
Its value is “lowered”.

What about the “CD4+CD25hi cells (number)” value (EAE in B6 mice; spleen) of the same molecule?
The value was “reduced”.

And the “CD4+CD25hi cells frequency” value (EAE in B6 mice; spleen)?
Its value is “not altered”.

What about the “CD49d expression on CD4 T cells” value (EAE in B6 mice; spleen) of the same molecule?
The value was “lowered CCR6, but not CD49d”.

And the “total number of recently activated CD4 T cells (CD69 and CD44)” value (EAE in B6 mice; spleen)?
The value was “decreased”.

And the “Efficacy (% of 1 μM IRX4204) RXRγ” value (RXRγ)?
Its value is 0.09 ± 0.011 % of 1 μM IRX4204.
